Measured values taken from ChEMBL document CHEMBL1201861, “Genomics of Drug Sensitity in Cancer screening data, Wellcome Trust Sanger Institute”.

Key:
Assay in all cases: cells
Type in all cases: functional, cell-based
Settings in all cases: Homo sapiens
NCI-H2052 = tested on: NCI-H2052;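 note: growth inhibition of NCI-H2052 cells, read out with a cell viability assay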
Description: SANGER: Inhibition of human NCI-H2052 cell growth in a cell viability assay.

BXPC-3 = tested on: BXPC-3;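 note: growth inhibition of human BxPC-3 cells, read out by a cell viability assay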
Description: SANGER: Inhibition of human BxPC-3 cell growth in a cell viability assay.

HCC1937 = tested on: HCC1937;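 note: growth inhibition measured with a cell viability read-out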
Description: SANGER: Inhibition of human HCC1937 cell growth in a cell viability assay.

PA-1 = tested on: PA-1;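 note: IC50 for suppression of PA-1 cell proliferation, determined with a cell viability read-out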
Description: SANGER: Inhibition of human PA-1 cell growth in a cell viability assay.

KYSE-510 = tested on: KYSE-510;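 note: cell viability readout used to measure how strongly growth of the cell line is suppressed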
Description: SANGER: Inhibition of human KYSE-510 cell growth in a cell viability assay.

SCC-25 = tested on: SCC-25;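 note: growth inhibition of SCC-25 cells, measured with a cell viability assay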
Description: SANGER: Inhibition of human SCC-25 cell growth in a cell viability assay.

EFO-27 = tested on: EFO-27;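 note: growth inhibition of EFO-27 cells, read out with a cell viability assay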
Description: SANGER: Inhibition of human EFO-27 cell growth in a cell viability assay.

IGR-1 = tested on: IGR-1;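 note: growth inhibition of human IGR-1 cells, read out with a cell viability assay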
Description: SANGER: Inhibition of human IGR-1 cell growth in a cell viability assay.

SN12C = tested on: SN12C;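 note: growth inhibition of human SN12C cells, measured by a cell viability assay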
Description: SANGER: Inhibition of human SN12C cell growth in a cell viability assay.

C-33-A = tested on: C-33-A;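 note: cell viability assay measuring growth inhibition of C-33-A cells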
Description: SANGER: Inhibition of human C-33-A cell growth in a cell viability assay.

HuP-T3 = tested on: HuP-T3;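 note: HuP-T3 cell growth inhibition, read out with a cell viability assay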
Description: SANGER: Inhibition of human HuP-T3 cell growth in a cell viability assay.

KYSE-520 cell line = tested on: KYSE-520 cell line;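 note: growth inhibition of human KYSE-520 cells, read out with a viability assay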
Description: SANGER: Inhibition of human KYSE-520 cell growth in a cell viability assay.

P12-Ichikawa = tested on: P12-Ichikawa
HT-29 = tested on: HT-29;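 note: growth inhibition of human HT-29 cells, read out by a cell viability assay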
Description: SANGER: Inhibition of human HT-29 cell growth in a cell viability assay.

CAL-51 = tested on: CAL-51;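 note: human CAL-51 cell line, growth inhibition read out via a cell viability assay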
Description: SANGER: Inhibition of human CAL-51 cell growth in a cell viability assay.

NCI-H2030 = tested on: NCI-H2030;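 note: growth inhibition of human NCI-H2030 cells, read out by a cell viability assay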
Description: SANGER: Inhibition of human NCI-H2030 cell growth in a cell viability assay.

NCI-H2342 = tested on: NCI-H2342;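 note: growth inhibition of the cancer cell line, determined with a cell viability assay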
Description: SANGER: Inhibition of human NCI-H2342 cell growth in a cell viability assay.

UMUC3 = tested on: UMUC3;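 note: growth inhibition of human UM-UC-3 cells, read out with a cell viability assay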
Description: SANGER: Inhibition of human UM-UC-3 cell growth in a cell viability assay.

RVH-421 = tested on: RVH-421
Description: SANGER: Inhibition of human RVH-421 cell growth in a cell viability assay.

NB17 = tested on: NB17;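 note: growth inhibition of NB17 cells, read out with a cell viability assay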
Description: SANGER: Inhibition of human NB17 cell growth in a cell viability assay.

RPMI-2650 = tested on: RPMI-2650
Description: SANGER: Inhibition of human RPMI-2650 cell growth in a cell viability assay.

NCI-H630 = tested on: NCI-H630;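 note: growth inhibition of NCI-H630 cells, read out with a cell viability assay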
Description: SANGER: Inhibition of human NCI-H630 cell growth in a cell viability assay.

NCI-H1703 = tested on: NCI-H1703;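 note: growth inhibition of NCI-H1703 cells, read out via a cell viability assay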
Description: SANGER: Inhibition of human NCI-H1703 cell growth in a cell viability assay.

647-V = tested on: 647-V;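 note: growth inhibition of 647-V cells, read out with a cell viability assay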
Description: SANGER: Inhibition of human 647-V cell growth in a cell viability assay.

NB14 = tested on: NB14;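 note: growth inhibition of NB14 cells measured with a cell viability assay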
Description: SANGER: Inhibition of human NB14 cell growth in a cell viability assay.

A673 = tested on: A673;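 note: growth inhibition of human A673 cells, read out through a cell viability assay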
Description: SANGER: Inhibition of human A673 cell growth in a cell viability assay.

RCM-1 = tested on: RCM-1;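 note: growth inhibition of the RCM-1 line, determined with a cell viability readout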
Description: SANGER: Inhibition of human RCM-1 cell growth in a cell viability assay.

NCI-H1755 = tested on: NCI-H1755;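 note: cell viability readout used to measure growth inhibition of NCI-H1755 cells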
Description: SANGER: Inhibition of human NCI-H1755 cell growth in a cell viability assay.

23132-87 = tested on: 23132-87
Description: SANGER: Inhibition of human 23132-87 cell growth in a cell viability assay.

HT-1376 = tested on: HT-1376
Description: SANGER: Inhibition of human HT-1376 cell growth in a cell viability assay.

PANC-03-27 = tested on: PANC-03-27
Description: SANGER: Inhibition of human PANC-03-27 cell growth in a cell viability assay.

D-247MG = tested on: D-247MG
Description: SANGER: Inhibition of human D-247MG cell growth in a cell viability assay.

A2058 = tested on: A2058;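 note: reduction of A2058 cell growth, read out with a viability assay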
Description: SANGER: Inhibition of human A2058 cell growth in a cell viability assay.

CAL-62 = tested on: CAL-62;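 note: growth inhibition of CAL-62 cells, read out with a cell viability assay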
Description: SANGER: Inhibition of human CAL-62 cell growth in a cell viability assay.

NCI-H2009 = tested on: NCI-H2009;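 note: cell viability assay measuring inhibition of NCI-H2009 cell growth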
Description: SANGER: Inhibition of human NCI-H2009 cell growth in a cell viability assay.

LU-135 = tested on: LU-135
Description: SANGER: Inhibition of human LU-135 cell growth in a cell viability assay.

PC-14 = tested on: PC-14;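 note: cell viability assay measuring inhibition of PC-14 cell growth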
Description: SANGER: Inhibition of human PC-14 cell growth in a cell viability assay.

Ca-Ski = tested on: Ca-Ski;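 note: cell viability assay measuring inhibition of Ca-Ski cell growth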
Description: SANGER: Inhibition of human Ca-Ski cell growth in a cell viability assay.

SK-MEL-30 = tested on: SK-MEL-30;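 note: growth inhibition of SK-MEL-30 cells, determined with a cell viability assay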
Description: SANGER: Inhibition of human SK-MEL-30 cell growth in a cell viability assay.

D-336MG = tested on: D-336MG
Description: SANGER: Inhibition of human D-336MG cell growth in a cell viability assay.

NCI-H292 = tested on: NCI-H292;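 note: growth inhibition of NCI-H292 cells, read out with a cell viability assay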
Description: SANGER: Inhibition of human NCI-H292 cell growth in a cell viability assay.

KNS-62 = tested on: KNS-62;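 note: inhibition of cell growth, read out with a cell viability assay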
Description: SANGER: Inhibition of human KNS-62 cell growth in a cell viability assay.

T-24 = tested on: T-24;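 note: growth inhibition of T-24 cells, read out with a cell viability assay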
Description: SANGER: Inhibition of human T-24 cell growth in a cell viability assay.

TYK-nu = tested on: TYK-nu;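 note: growth inhibition of human TYK-nu cells, read out by a cell viability assay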
Description: SANGER: Inhibition of human TYK-nu cell growth in a cell viability assay.

MG-63 = tested on: MG-63;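 note: growth inhibition of human MG-63 cells, read out with a cell viability assay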
Description: SANGER: Inhibition of human MG-63 cell growth in a cell viability assay.

A253 cell line = tested on: A253 cell line;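 note: growth inhibition of A253 cells, read out with a cell viability assay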
Description: SANGER: Inhibition of human A253 cell growth in a cell viability assay.

LB996-RCC = tested on: LB996-RCC
Description: SANGER: Inhibition of human LB996-RCC cell growth in a cell viability assay.

Cn1cc(/C=C2\C(=O)Nc3cccnc32)c2ccccc21
IC50 (NCI-H2052): > 2 µM
IC50 (BXPC-3): > 2 µM
IC50 (HCC1937): > 2 µM
IC50 (PA-1): > 2 µM
IC50 (KYSE-510): > 2 µM
IC50 (SCC-25): > 2 µM
IC50 (EFO-27): > 2 µM
IC50 (IGR-1): > 2 µM
IC50 (SN12C): > 2 µM
IC50 (C-33-A): > 2 µM
IC50 (HuP-T3): > 2 µM
IC50 (KYSE-520 cell line): > 2 µM
IC50 (P12-Ichikawa): > 2 µM
IC50 (HT-29): > 2 µM
IC50 (CAL-51): > 2 µM
IC50 (NCI-H2030): > 2 µM
IC50 (NCI-H2342): > 2 µM
IC50 (UMUC3): > 2 µM
IC50 (RVH-421): > 2 µM
IC50 (NB17): > 2 µM
IC50 (RPMI-2650): > 2 µM
IC50 (NCI-H630): > 2 µM
IC50 (NCI-H1703): 0.299 µM
IC50 (647-V): > 2 µM
IC50 (NB14): > 2 µM
IC50 (A673): > 2 µM
IC50 (RCM-1): > 2 µM
IC50 (NCI-H1755): > 2 µM
IC50 (23132-87): > 2 µM
IC50 (HT-1376): > 2 µM
IC50 (PANC-03-27): > 2 µM
IC50 (D-247MG): > 2 µM
IC50 (A2058): > 2 µM
IC50 (CAL-62): > 2 µM
IC50 (NCI-H2009): > 2 µM
IC50 (LU-135): > 2 µM
IC50 (PC-14): > 2 µM
IC50 (Ca-Ski): > 2 µM
IC50 (SK-MEL-30): > 2 µM
IC50 (D-336MG): > 2 µM
IC50 (NCI-H292): > 2 µM
IC50 (KNS-62): > 2 µM
IC50 (T-24): 0.638 µM
IC50 (TYK-nu): > 2 µM
IC50 (MG-63): > 2 µM

NC(=O)c1ncn([C@@H]2O[C@H](COP(=O)(O)O)[C@@H](O)[C@H]2O)c1N
IC50 (NCI-H2052): 1490 µM
IC50 (BXPC-3): 1350 µM
IC50 (HCC1937): > 2000 µM
IC50 (PA-1): 856 µM
IC50 (KYSE-510): 905 µM
IC50 (SCC-25): 1230 µM
IC50 (EFO-27): 1680 µM
IC50 (IGR-1): > 2000 µM
IC50 (SN12C): > 2000 µM
IC50 (C-33-A): > 2000 µM
IC50 (HuP-T3): 1350 µM
IC50 (KYSE-520 cell line): 382 µM
IC50 (P12-Ichikawa): 1470 µM
IC50 (HT-29): > 2000 µM
IC50 (NCI-H2030): 1510 µM
IC50 (NCI-H2342): > 2000 µM
IC50 (UMUC3): 1750 µM
IC50 (RVH-421): > 2000 µM
IC50 (NB17): > 2000 µM
IC50 (NCI-H630): > 2000 µM
IC50 (NCI-H1703): > 2000 µM
IC50 (647-V): > 2000 µM
IC50 (NB14): 1450 µM
IC50 (A673): > 2000 µM
IC50 (RCM-1): > 2000 µM
IC50 (NCI-H1755): 1840 µM
IC50 (23132-87): > 2000 µM
IC50 (HT-1376): > 2000 µM
IC50 (PANC-03-27): > 2000 µM
IC50 (D-247MG): > 2000 µM
IC50 (A2058): > 2000 µM
IC50 (CAL-62): > 2000 µM
IC50 (NCI-H2009): 1460 µM
IC50 (LU-135): > 2000 µM
IC50 (PC-14): 379 µM
IC50 (Ca-Ski): > 2000 µM
IC50 (SK-MEL-30): > 2000 µM
IC50 (NCI-H292): > 2000 µM
IC50 (KNS-62): 996 µM
IC50 (T-24): > 2000 µM
IC50 (TYK-nu): > 2000 µM
IC50 (MG-63): > 2000 µM

Cn1c(=O)n(-c2ccc(C(C)(C)C#N)cc2)c2c3cc(-c4cnc5ccccc5c4)ccc3ncc21 [DACTOLISIB]
IC50 (NCI-H2052): 0.175 µM
IC50 (BXPC-3): 0.0815 µM
IC50 (HCC1937): 0.187 µM
IC50 (PA-1): 0.0118 µM
IC50 (KYSE-510): 0.0658 µM
IC50 (SCC-25): 0.0898 µM
IC50 (EFO-27): 0.0243 µM
IC50 (A253 cell line): 0.0826 µM
IC50 (IGR-1): 0.0461 µM
IC50 (SN12C): 0.0906 µM
IC50 (LB996-RCC): 0.0472 µM
IC50 (C-33-A): 0.136 µM
IC50 (HuP-T3): 1.12 µM
IC50 (KYSE-520 cell line): 0.253 µM
IC50 (P12-Ichikawa): 0.0151 µM
IC50 (HT-29): > 2 µM
IC50 (CAL-51): 0.0239 µM
IC50 (NCI-H2030): 0.0215 µM
IC50 (NCI-H2342): 0.59 µM
IC50 (UMUC3): < 0.00781 µM
IC50 (RVH-421): 0.0537 µM
IC50 (NB17): 0.722 µM
IC50 (RPMI-2650): 0.0527 µM
IC50 (NCI-H630): 0.913 µM
IC50 (647-V): 0.0781 µM
IC50 (NB14): 0.0883 µM
IC50 (A673): > 2 µM
IC50 (RCM-1): 0.497 µM
IC50 (NCI-H1755): 0.139 µM
IC50 (HT-1376): 0.385 µM
IC50 (PANC-03-27): 0.0763 µM
IC50 (D-247MG): 0.135 µM
IC50 (A2058): 0.0332 µM
IC50 (CAL-62): 0.0369 µM
IC50 (LU-135): > 2 µM
IC50 (PC-14): 0.0466 µM
IC50 (Ca-Ski): 0.156 µM
IC50 (SK-MEL-30): 0.196 µM
IC50 (NCI-H292): 0.027 µM
IC50 (KNS-62): 0.0454 µM
IC50 (T-24): 0.0438 µM
IC50 (TYK-nu): 0.00994 µM
IC50 (MG-63): 0.0234 µM

CC(=O)c1c(C)c2cnc(Nc3ccc(N4CCNCC4)cn3)nc2n(C2CCCC2)c1=O [PALBOCICLIB]
IC50 (NCI-H2052): > 4 µM
IC50 (BXPC-3): > 4 µM
IC50 (HCC1937): > 4 µM
IC50 (PA-1): 0.51 µM
IC50 (KYSE-510): > 4 µM
IC50 (SCC-25): > 4 µM
IC50 (EFO-27): 2.32 µM
IC50 (A253 cell line): > 4 µM
IC50 (IGR-1): > 4 µM
IC50 (SN12C): 1.01 µM
IC50 (LB996-RCC): > 4 µM
IC50 (C-33-A): > 4 µM
IC50 (HuP-T3): > 4 µM
IC50 (KYSE-520 cell line): > 4 µM
IC50 (P12-Ichikawa): 0.096 µM
IC50 (HT-29): > 4 µM
IC50 (CAL-51): 1.75 µM
IC50 (NCI-H2342): > 4 µM
IC50 (RVH-421): > 4 µM
IC50 (NB17): > 4 µM
IC50 (RPMI-2650): > 4 µM
IC50 (NCI-H630): > 4 µM
IC50 (647-V): > 4 µM
IC50 (NB14): 0.484 µM
IC50 (A673): > 4 µM
IC50 (RCM-1): > 4 µM
IC50 (NCI-H1755): > 4 µM
IC50 (HT-1376): > 4 µM
IC50 (PANC-03-27): > 4 µM
IC50 (D-247MG): > 4 µM
IC50 (CAL-62): 1.61 µM
IC50 (LU-135): > 4 µM
IC50 (PC-14): > 4 µM
IC50 (Ca-Ski): > 4 µM
IC50 (SK-MEL-30): > 4 µM
IC50 (NCI-H292): 2.85 µM
IC50 (KNS-62): > 4 µM
IC50 (T-24): 0.779 µM
IC50 (TYK-nu): 0.998 µM
IC50 (MG-63): 1.62 µM
